The values that follow come from patent publication USRE42376E1, “Substituted 3-cyanoquinolines” (Wyeth Holdings Corporation, priority 1998, dated 2011).

The structures appear in SMILES notation. In brackets after ≈: the same amount, converted by molar mass. Where a name gives a salt, the structure may show the parent alone.

One series concerns 3T3. As to the kind of experiment: Inhibition of cell growth as measured by cell number, 3T3. Type of series: cell-based. Conditions: 48 hours exposure, Sulforhodamine B. The method, then: (§1) Human tumor cell lines were plated in 96-well plates (250 μl/well, 1-6×10^4 cells/ml) in RPMI 1640 medium, containing 5% FBS (Fetal Bovine Serum). […] After 48 hours exposure to test compounds, cells were fixed with trichloroacetic acid, and stained with Sulforhodamine B. After washing with trichloroacetic acid, bound dye was solubilized in 10 mM Tris base and optical density was determined using plate reader. Under conditions of the assay the optical density is proportional to the number of cells in the well. […] The test procedure is described in details by Philip Skehan et. al, J.Natl. Canc. Inst., 82, 1107-1112 (1990). […] Information about some of the cell lines used in these test procedures is available from the American Type Tissue Collection: Cell Lines and Hybridomas, 1994 Reference Guide, 8th Edition.

Another series deals with SW620. As to the kind of experiment: Inhibition of cancer cell growth as measured by cell number, SW620. The format is cell-based, Human. To be noted: 48 hours exposure, Sulforhodamine B. How it is done:
as §1

A further series has as its system Her2/3T3. Nature of the series: Inhibition of cell growth as measured by cell number, Her2/3T3. Type of series: cell-based. Conditions: 48 hours exposure, Sulforhodamine B. The method, then: as §1
The next series has as its system A431. Nature of the series: Inhibition of cancer cell growth as measured by cell number, A431. Type of series: cell-based, Human. Conditions: 48 hours exposure, Sulforhodamine B. The method, then:
as §1

Another series concerns SKBR3. Nature of the series: Inhibition of cancer cell growth as measured by cell number, SKBR3. Type of series: cell-based, Human. To be noted: 48 hours exposure, Sulforhodamine B. The method, then: as §1
The next series concerns MDAMB435. Nature of the series: Inhibition of cancer cell growth as measured by cell number, MDAMB435. Type of series: cell-based, Human. Conditions: 48 hours exposure, Sulforhodamine B. How it is done:
as §1

Series [1] deals with Epithelial Cell Kinase (ECK) (Homo sapiens, UniProt P29317). Nature of the series: Inhibition of Epithelial Cell Kinase (ECK). Type of series: biochemical. The method, then:
In this standard pharmacological test procedure, a biotinylated peptide substrate is first immobilized on neutravidin-coated microtiter plates. The test drug, the Epithelial Cell Kinase (ECK), Mg^++, sodium vanadate (a protein tyrosine phosphatase inhibitor), and an appropriate buffer to maintain pH (7.2) are then added to the immobilized substrate-containing microtiter wells. ATP is then added to initiate phosphorylation. After incubation, the assay plates are washed with a suitable buffer leaving behind phosphorylated peptide which is exposed to horse radish peroxidase (HRP)-conjugated anti-phosphotyrosine monoclonal antibody. The antibody-treated plates are washed again and the HRP activity in individual wells is quantified as a reflection of degree of substrate phosphorylation. […] Multiple entries for a given compound indication it was tested multiple times.

In series [2] the test system is Human Epidermoid Tumors (A431). As to the kind of experiment: In vivo inhibition of the growth of human epidermoid tumors (A431) in mice. Further details: species or system BALB/c nu/nu female mice. To be noted: for S/T = # of Survivors/# of Treated: Day +28 post tumor staging. The method, then:
Human epidernoid carcinoma cells A-431 (American Type Culture Collection, Rockville, Md. #CRL-155) were grown in vitro as described above. A unit of 5×10^6 cells were injected SC into mice. […] Control animals received no drug. […] The % T/C (Tumor/Control) is determined by dividing the relative tumor growth of the treated group by the relative tumor growth of the placebo group and multiplying by 100.

Series [3] addresses T1, recombinant human MEK 1 (MAPKK) and human ERK2 (MAPK) (Homo sapiens, UniProt P28482+Q02750).
T1 construct: The recombinant enzymes used were prepared as GST fusion proteins of human ERK 2 and human MEK 1
As to the kind of experiment: Mitogen Activated Protein Kinase (MAPK) coupled assay (Mek-Erk). Type of series: biochemical. Conditions: separate entries = repeat tests. How it is done:
To evaluate inhibitors of the MAP (mitogen activated protein) kinase a two component coupled standard pharmacological test procedure, which measures phosphorylation of a serine/threonine residue in an appropriate sequence in the substrate in the presence and absence of a putative inhibitor, was used. Recombinant human MEK 1 (MAPKK) was first used to activate recombinant human ERK2 (MAPK) and the activated MAPK (ERK) was incubated with substrate (MBP peptide or MYC peptide) in the presence of ATP, Mg^+2 and radiolabeled ^33P ATP. The phosphorylated peptide was captured on a P 81 phosphocellulose filter (paper filter or embedded in microtiter plate) washed and counted by scintillation methods. […]
The reaction was run as follows in 50 mM Tris kinase buffer, pH 7.4 in a reaction volume of 50 ul. […] The filters or MTP were briefly air dried before addition of scintillant and samples were counted in the appropriate scintillation counter set up for reading ^33P isotope. […]
The raw data was captured as cpm. […] Mean cpm data was tabulated by group and % inhibition by a test compound was calculated as (corrected cpm control-corrected. cpm sample/control) X 100=% inhibition. […] The results obtained for representative compounds of this invention are listed in TABLE 2 where there may be separate entries for the same compound; this is an indication that the compound was evaluated more than one time.

Sequence of Epithelial Cell Kinase (ECK) (P29317 24-976, species assumed): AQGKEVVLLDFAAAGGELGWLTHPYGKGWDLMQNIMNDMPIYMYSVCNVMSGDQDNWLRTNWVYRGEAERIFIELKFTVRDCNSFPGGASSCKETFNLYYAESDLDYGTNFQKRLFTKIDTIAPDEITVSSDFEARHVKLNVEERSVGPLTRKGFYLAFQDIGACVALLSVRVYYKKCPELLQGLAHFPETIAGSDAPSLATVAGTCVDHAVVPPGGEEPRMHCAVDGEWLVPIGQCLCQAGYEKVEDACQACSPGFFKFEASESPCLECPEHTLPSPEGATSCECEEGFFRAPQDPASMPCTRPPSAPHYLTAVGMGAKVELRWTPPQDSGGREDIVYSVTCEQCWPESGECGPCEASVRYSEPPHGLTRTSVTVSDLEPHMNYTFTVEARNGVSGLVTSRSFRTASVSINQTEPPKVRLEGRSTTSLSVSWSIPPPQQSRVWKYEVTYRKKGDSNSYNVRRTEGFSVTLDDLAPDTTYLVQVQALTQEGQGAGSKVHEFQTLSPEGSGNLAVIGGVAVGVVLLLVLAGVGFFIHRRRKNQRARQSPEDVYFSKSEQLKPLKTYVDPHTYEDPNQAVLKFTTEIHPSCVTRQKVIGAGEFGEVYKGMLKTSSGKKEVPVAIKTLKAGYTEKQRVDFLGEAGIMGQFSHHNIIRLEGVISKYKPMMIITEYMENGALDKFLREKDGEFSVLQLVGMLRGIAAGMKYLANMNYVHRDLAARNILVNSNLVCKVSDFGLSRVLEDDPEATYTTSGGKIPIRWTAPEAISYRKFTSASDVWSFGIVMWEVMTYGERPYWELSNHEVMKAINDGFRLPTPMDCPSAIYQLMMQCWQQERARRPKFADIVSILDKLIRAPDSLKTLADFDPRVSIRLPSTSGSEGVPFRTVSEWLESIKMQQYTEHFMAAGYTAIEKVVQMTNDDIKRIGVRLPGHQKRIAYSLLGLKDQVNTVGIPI
T1 sequence (Q02750 whole entry, the tested form may be a part): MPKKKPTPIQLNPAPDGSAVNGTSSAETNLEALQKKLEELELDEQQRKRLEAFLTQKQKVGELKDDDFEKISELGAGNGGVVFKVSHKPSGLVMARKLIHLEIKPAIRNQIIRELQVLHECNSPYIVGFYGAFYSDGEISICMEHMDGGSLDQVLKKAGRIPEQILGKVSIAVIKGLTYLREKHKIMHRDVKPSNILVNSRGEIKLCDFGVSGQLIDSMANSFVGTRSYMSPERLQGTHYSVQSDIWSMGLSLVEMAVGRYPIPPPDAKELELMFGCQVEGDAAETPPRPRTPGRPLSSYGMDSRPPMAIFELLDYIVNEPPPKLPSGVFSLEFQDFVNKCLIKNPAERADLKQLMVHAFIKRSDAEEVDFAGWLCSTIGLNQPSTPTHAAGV
T1 sequence (P28482 2-360): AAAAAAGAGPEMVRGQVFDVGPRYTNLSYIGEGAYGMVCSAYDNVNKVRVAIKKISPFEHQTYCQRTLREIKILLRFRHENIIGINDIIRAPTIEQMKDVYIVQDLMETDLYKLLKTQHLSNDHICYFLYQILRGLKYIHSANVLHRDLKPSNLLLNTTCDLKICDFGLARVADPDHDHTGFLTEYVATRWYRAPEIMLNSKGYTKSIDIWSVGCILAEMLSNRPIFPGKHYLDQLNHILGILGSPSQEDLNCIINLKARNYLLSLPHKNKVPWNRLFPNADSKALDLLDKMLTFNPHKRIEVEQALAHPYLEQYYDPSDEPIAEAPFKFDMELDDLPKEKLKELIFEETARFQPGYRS

Take `COC[C@@H]1CCCN1CC=CC(=O)Nc1cc2c(Nc3ccc(F)c(Cl)c3)c(C#N)cnc2cc1OC.Cl.Cl` [Example 90, (S)-4-(2-Methoxymethyl-pyrrolidin-1-yl)-but-2-enoic Acid[4-(3-chloro-4-fluoro-phenylamino)-3-cyano-7-methoxy-quinolin-6-yl]-amide dihydrochloride]: the “IC50 cell growth 3T3” value in the series with 3T3 was found to be 2.1 µg/mL. Moreover, the “IC50 cell growth SW620” value in the series on SW620 is 1.24 µg/mL. Besides, the “IC50 cell growth Her2/3T3” value with Her2/3T3 was found to be 0.329 µg/mL. Also, in the series with A431, the “IC50 cell growth A431” value came to 0.234 µg/mL. Further, in the series with SKBR3, the “IC50 cell growth SKBR3” value stood at 0.148 µg/mL. Further, the “IC50 cell growth MDAMB435” value with MDAMB435 was 1.74 µg/mL.
One may read the melting point as the temperature, or range, at which the solid turns liquid. In the case of `COc1cc2ncc(C#N)c(Nc3ccc(F)c(Cl)c3)c2cc1N1CC1`, the melting point lay in the range of 197 to 199 °C.
What is called IC50 is the concentration needed to halve the response being measured. Regarding `COCCN(C)CC#CC(=O)Nc1ccc2ncc(C#N)c(Nc3cccc(Br)c3)c2c1` [Example 76, N-[4-[(3-Bromophenyl)amino]-3-cyano-6-quinolinyl]-4-(N-methoxyethyl-N-methylamino)-2-butynamide], the melting point is 95 °C (dec.). Also, the IC50 in series [1] is above 40.6 µM.
Turning to `C=CCN(C)CC#CC(=O)Nc1ccc2ncc(C#N)c(Nc3cccc(Br)c3)c2c1` [Example 77, N-[4-[(3-Bromophenyl)amino]-3-cyano-6-quinolinyl]-4-(N-allyl-N-methylamino)-2-butynamide], the melting point was 133 to 135 °C.
As for `COCCN(C)CC=CC(=O)Nc1cc2c(Nc3ccc(F)c(Cl)c3)c(C#N)cnc2cc1OC` [Example 89, 4-[(2-Methoxy-ethyl)-methyl-amino]-but-2-enoic Acid[4-(3-chloro-4-fluoro-phenylamino)-3-cyano-7-methoxy-quinolin-6-yl]-amide Dihydrochloride], the “S/T = # of Survivors/# of Treated” value in series [2] (Table 5, 10 mg/kg/dose PO days 1 through 10) is 4/5; in series [2] (Table 5, 40 mg/kg/dose PO days 1 through 10), 5/5. The “inhibition of tumor growth in vivo (in words)” value in series [2] (given orally at 40 mg/Kg and 10 mg/Kg) was “effective inhibitor of tumor growth in vivo”.
Regarding `CCOc1c(Nc2ccc3ncc(C#N)c(Nc4cccc(Br)c4)c3c2)c(=O)c1=O` [Example 85, 4-(3-Bromo-phenylamino)-6-(2-ethoxy-3,4-dioxo-cyclobut-1-enylamino)-quinoline-3-carbonitrile], in [1], the IC50 was above 21.6 µM.
Regarding `COC[C@@H]1CCCN1CC#CC(=O)Nc1ccc2ncc(C#N)c(Nc3cccc(Br)c3)c2c1` [Example 79, 4-((2S)-2-Methoxymethylpyrrolidin-1-yl)but-2-ynoic Acid[4-(3-bromophenylamino)-3-cyanoquinolin-6-yl]amide], the IC50 in series [1] was above 38.6 µM; in [3], 80 µM.
`COCCN(CC#CC(=O)Nc1ccc2ncc(C#N)c(Nc3cccc(Br)c3)c2c1)CCOC` [Example 75, N-[4-[(3-Bromophenyl)amino]-3-cyano-6-quinolinyl]-4-(bis-(2-methoxyethyl)amino)-2-butynamide] registered a melting point of 98 to 101 °C. The compound further displayed an IC50 in [1] above 37.3 µM.
`COc1cc2ncc(C#N)c(Nc3ccc(F)c(Cl)c3)c2cc1NC(=O)C=CCN1CCC2(CC1)OCCO2` [Example 92, 4-(1,4-Dioxa-8-aza-spiro[4.5]dec-8-yl)-but-2-enoic Acid[4-(3-chloro-4-fluoro-phenylamino)-3-cyano-7-methoxy-quinolin-6-yl]-amide]: the “IC50 cell growth 3T3” value in the series with 3T3 amounted to 2.79 µg/mL (≈ 5.05 µM). Also, the “IC50 cell growth SW620” value in the series on SW620 was found to be 2.51 µg/mL (≈ 4.55 µM). The “S/T = # of Survivors/# of Treated” value is 5/5 in [2] (Table 4, 10 mg/kg/dose PO days 1 through 10) and 5/5 in series [2] (Table 4, 40 mg/kg/dose PO days 1 through 10). In addition, the “inhibition of tumor growth in vivo (in words)” value in series [2] (given orally at 40 mg/Kg) is reported as “effective inhibitor of tumor growth in vivo”. In the series with Her2/3T3, the “IC50 cell growth Her2/3T3” value was 0.35 µg/mL (≈ 0.634 µM). The “IC50 cell growth A431” value in the series with A431 was determined as 0.283 µg/mL (≈ 0.513 µM). Besides, the “IC50 cell growth SKBR3” value in the series with SKBR3 is 0.188 µg/mL (≈ 0.341 µM). In addition, in the series with MDAMB435, the “IC50 cell growth MDAMB435” value came to 3.32 µg/mL (≈ 6.01 µM).
